Experimental findings from paper PMC6208908, “Field template-based design and biological evaluation of new sphingosine kinase 1 inhibitors” (Breast Cancer Research and Treatment, 2018) are described below.

This data set is described as follows: Whole-body toxicity: body and organ weights, full blood count. In kind it is in vivo, BALB/c nude mice. Conditions: 5 mg/kg each drug i.p. twice a week for 2 weeks, 4T1 tumour-bearing mice. As for the experimental part:
Breast cancer allografts were established in 6–8-week-old BALB/c nude mice by injection of 10^6 4T1 cells into their mammary pad. Two weeks after implantation, mice were randomised into treatment groups (n = 6/group) and treated twice a week for 2 weeks with intraperitoneal injections of dimethyl sulfoxide (DMSO), 5 mg/kg DTX, 5 mg/kg SK-F, 5 mg/kg DTX + 5 mg/kg SK-F. One day after the last treatment, all mice were euthanized and blood was collected. Tumour long and short radii were measured using calipers and tumour volume (v) was calculated using the formula v = 4/3 πab^2 (a – long radius, b – short radius). Mice and individual organs were weighed and primary tumours were then processed for analysis of SK1 activity as described above. Full blood count and liver function test analysis was done in the Hammersmith hospital biochemical lab.
Tumour-bearing mice were divided into four groups (n = 6) and injected with: DMSO, 5 mg/kg DTX, 5 mg/kg SK-F, 5 mg/kg DTX + 5 mg/kg SK-F. Two weeks after the tumour cells inoculation, we began intraperitoneal injections of drug preparations and continued these twice a week for two weeks. Based on our previous studies, we have chosen relatively smaller doses of SK-F and DTX in order to investigate their combined effect and potential chemosensitisation of breast tumours to taxane therapies. In the control group, tumours grew progressively and rapidly (Fig. 5a). […] Five mg/kg DTX has induced a significant reduction in tumour volume to 281 mm^3. The biggest reduction in tumour volume to 159 mm^3 was observed when DTX was combined with SK-F (Fig. 5a). […] We have further investigated the effects of the used treatments on mouse whole-body toxicity. DTX has reduced body and liver weight, while SK-F had no significant effect (Table 1). DTX has induced significant anaemia and leukopenia, while the effects of SK-F were very moderate. In all cases, the effects of combined therapy were similar to DTX alone (Table 1). Liver function test was performed as a surrogate marker for chemotherapy-induced liver damage (Fig. 6). […] The combination therapy had similar toxicity profile to DTX alone, while exerting higher antitumour efficacy (Fig. 5a).

Marks after values point to notes of the source that are not given here.

With `CCCCCCCCc1ccc(NC(=O)c2ccccc2)cc1` [SK-F], the Hb is 90 ± 8^a % of control ± SEM, the WCC is recorded as 78 ± 7 % of control ± SEM, the “Weight of Body” value is reported as 91 ± 6^ns % of control ± SEM and the “Weight of Kidney” value is 118.2 ± 3.6 % of control ± SEM. Moreover, the “Weight of Liver” value was 106.7 ± 5.5^a % of control ± SEM, the “Weight of Lungs” value was 117.7 ± 5.6 % of control ± SEM and the “Weight of Spleen” value is given as 111.2 ± 13.4^a % of control ± SEM.
